{
  "source": "patent US20050074468A1",
  "about": "“Topical compositions containing nonimmunosuppressive cyclosporin derivatives for treating hair loss” (priority 2001, published 2005)",
  "origin": "cited, not measured here",
  "tested_on": "mouse's back",
  "settings": "relative to minoxidil",
  "data": [
    {"substance": "Cyclosporin A", "values": [
      {"measurement": "hair regrowth effect superior to minoxidil", "value": "about 100 times"}
    ]}
  ]
}
